The numbers were not newly measured in publication PMC12866175 (European journal of nuclear medicine and molecular imaging, 2021), which cites them from elsewhere.

The subject of series [1] is tumor. As to conditions: human, in vivo; cited from earlier work.
For series [2], the system named is NETs. As to conditions: cited from earlier work.

On to [^177Lu]Lu-DOTA-TATE, for which the “tumor residence time compared with [^177Lu]Lu-DOTATOC” value in series [1] is reported as “greater tumor residence time”. For the same substance, in series [2], the “patients achieving stable disease” value is 26–55%, the patients treatment refractory is 18–32% and the “time after starting treatment within which half progress” value is given as 2 to 3 years.
